Assay results: patent US12594282B2, “Use of small molecule compounds in the treatment of diseases mediated by lung epithelial cell injury and/or vascular endothelial cell injury” (Guangzhou Cellprotek Pharmaceutical Co., Ltd., priority 2020, dated 2026)

System: primary cerebellar granule neuron
Test: Intracellular lactate assay in glutamate-stimulated primary cerebellar granule neurons
Format: cell-based, mice
Conditions: 10 μM, pre-incubation 20 mins; 200 μM glutamate for 15 mins
Experimental: The cells were obtained from SD P7-8 neonatal mice. The cerebellum was taken, and the meninges and blood vessels were removed using microtweezers; the isolated cerebellar tissue was transferred to another dish containing dissection solution. The tissue was cut into pieces as small as possible using a tissue scissor. Digestion: The tissue in pieces was added into 7 mL of 0.25% trypsin digestive solution with a pipet, and was digested at 37° C. for 15 mins; the bench surface was cleaned and the instruments were washed. The container was turned upside down several times every five minutes to bring the tissue into better contact with the digestive solution. End of digestion: After the digestion, it can be seen that the tissue was sticked together and suspended in the liquid due to cell disruption and release of DNA. The digestion was terminated by adding 3 mL of RNase-containing 10% FBS DMEM medium. […] The cells were counted with a hand-held cell counter, and the seeding density was 4.0-5.0×10^5 cells/mL. […]
Pretreatment: The number of cells used for the determination of intracellular lactate content was 1-2*10^6. […] Centrifugation was performed at 16,000 g for 5 mins at 4° C., 160 μL of supernatant was collected into a new EP tube, and the remaining supernatant was subjected to BCA protein quantification. […]

C[C@@]12CCCC1C1C[C@@H](O)[C@]3(O)C[C@@H](O)CC[C@]3(C)C1CC2 (stereo partly drawn) [YC-6, 5α-androst-3β,5,6β-triol]
glutamate-induced intracellular accumulation of lactate: significantly inhibited the accumulation of lactate
